We go through ten compounds from ChEMBL document CHEMBL6134905, “Double Swords in One: Novel Selective PI3K/110β PROTAC Degraders for the Treatment of Multidrug-Resistant Cancer by Activating ERS and Inhibiting P-gp” (J Med Chem, 2025).

Assay [1] concerns the target T1, von Hippel-Lindau disease tumor suppressor/Phosphatidylinositol 4,5-bisphosphate 3-kinase catalytic subunit beta isoform (Homo sapiens, UniProt P42338+P40337). As to the kind of experiment: PROTAC activity at PI3K-p110beta/VHL in human A549/DDP cells assessed as induction of PI3K-p110beta degradation at 25 uM incubated for 24 hrs by Western blot analysis. It counts as cell-based. Background: In western blotting, separated proteins are transferred to a membrane and probed.

For assay [2], the target named is T1, von Hippel-Lindau disease tumor suppressor/Phosphatidylinositol 4,5-bisphosphate 3-kinase catalytic subunit beta isoform. As to the kind of experiment: PROTAC activity at PI3K-p110beta/VHL in human MCF7/ADM cells assessed as induction of PI3K-p110beta degradation at 2.5 uM incubated for 24 hrs by Western blot analysis. It counts as cell-based.
Assay [3] shares this target. As to the kind of experiment: PROTAC activity at PI3K-p110beta/VHL in human A549/DDP cells assessed as induction of PI3K-p110beta degradation at 2.5 uM incubated for 24 hrs by Western blot analysis. It counts as cell-based.
The target is the same in assay [4]. As to the kind of experiment: PROTAC activity at PI3K-p110beta/VHL in human MCF7/ADM cells assessed as induction of PI3K-p110beta degradation at 25 uM incubated for 24 hrs by Western blot analysis. Format: cell-based.
Assay [5] relates to A549/CDDP. As to the kind of experiment: Activation of unfolded protein response in human A549/DDP cells at 25 uM incubated for 24 hrs by PROTEOSTATR aggresome dye based fluorescent microscopy. Format: functional, cell-based.
Assay [6] concerns MCF7/ADM. The assay is described as follows: Induction of cell death in human MCF-7/ADM cells at 25 uM incubated for 24 hrs. It counts as functional, cell-based.
The subject of assay [7] is A549/CDDP. As to the kind of experiment: Induction of cell death in human A549/DDP cells at 25 uM incubated for 24 hrs. Format: functional, cell-based.
Assay [8] concerns A549/CDDP. As to the kind of experiment: Induction of apoptosis in human A549/DDP cells at 25 uM incubated for 24 hrs by Annexin V-FITC/PI staining based flow cytometry analysis (reference value: 4.27%). Format: functional. (In flow cytometry, cells or beads pass a laser one at a time.)
Assay [9] is described as follows: Induction of apoptosis in human MCF7/ADM cells at 25 uM incubated for 24 hrs by Annexin V-FITC/PI staining based flow cytometry analysis (reference value: 5.20%). Format: functional.
Assay [10] concerns the target T1, von Hippel-Lindau disease tumor suppressor/Phosphatidylinositol 4,5-bisphosphate 3-kinase catalytic subunit beta isoform. As to the kind of experiment: PROTAC activity at PI3K-p110beta/VHL in human MCF7/ADM cells assessed as reduction in PI3K-p110beta mRNA level at 25 uM measured for 24 hrs by qRT-PCR analysis. Format: cell-based.
A further assay concerns A549. As to the kind of experiment: Antitumor activity against human A549 cells assessed as cell viability incubated for 24 hrs by MTT assay. It counts as functional, cell-based. Conditions: A549, 24 h.
Another assay has as its system MCF7. The assay is described as follows: Antitumor activity against human MCF7 cells assessed as cell viability incubated for 24 hrs by MTT assay. The note with it: MCF7, 24 h. Format: functional, cell-based. In general terms: Tetrazolium dyes change colour on reduction, which living cells bring about.
Assay [11] has as its target T1, von Hippel-Lindau disease tumor suppressor/Phosphatidylinositol 4,5-bisphosphate 3-kinase catalytic subunit beta isoform. The assay is described as follows: PROTAC activity at PI3K-p110beta/VHL in human MCF7/ADM cells assessed as reduction in PI3K-p110beta level at 25 uM measured for 24 hrs by Western blot analysis. Format: cell-based.
The nature of assay [12]: Antitumor activity against human MCF7/ADM cells assessed as cell viability incubated for 24 hrs by MTT assay. It counts as functional, cell-based.
Assay [13] has as its system A549/CDDP. The assay is described as follows: Antitumor activity against human A549/DDP cells assessed as cell viability incubated for 24 hrs by MTT assay. Format: functional, cell-based.
The test system of assay [14] is MCF7/ADM. As to the kind of experiment: Antitumor activity against human MCF7/ADM cells xenografted in BALB/c mouse assessed as reduction in tumor volume at 50 mg/kg, ip measured every 2 days. Format: functional, organism-based. Conditions: time 2.0 day.
For assay [15], the target named is T1, von Hippel-Lindau disease tumor suppressor/Phosphatidylinositol 4,5-bisphosphate 3-kinase catalytic subunit beta isoform. As to the kind of experiment: PROTAC activity at PI3K-p110beta/VHL in human A549/DDP cells assessed as reduction in PI3K-p110beta mRNA level at 25 uM measured for 24 hrs by qRT-PCR analysis. It counts as cell-based.
Assay [16] shares this target. As to the kind of experiment: PROTAC activity at PI3K-p110beta/VHL in human A549/DDP cells assessed as reduction in PI3K-p110beta level at 25 uM measured for 24 hrs by Western blot analysis. It counts as cell-based.

Active and inactive are the calls of the source. No cut-off for these calls is given here. Residues, ends and D or L forms follow the SMILES beside them. *: point of attachment. Cbz = O=C(OCc1ccccc1)*; CH2F = FC*

T1 sequence (P40337 whole entry, looked up, canonical isoform): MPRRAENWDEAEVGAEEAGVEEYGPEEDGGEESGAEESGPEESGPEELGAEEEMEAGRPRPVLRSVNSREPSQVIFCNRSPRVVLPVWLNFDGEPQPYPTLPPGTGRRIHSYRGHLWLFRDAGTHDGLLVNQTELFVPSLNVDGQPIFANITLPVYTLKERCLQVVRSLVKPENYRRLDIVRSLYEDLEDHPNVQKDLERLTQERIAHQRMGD
T1 sequence (P42338 whole entry, looked up, canonical isoform): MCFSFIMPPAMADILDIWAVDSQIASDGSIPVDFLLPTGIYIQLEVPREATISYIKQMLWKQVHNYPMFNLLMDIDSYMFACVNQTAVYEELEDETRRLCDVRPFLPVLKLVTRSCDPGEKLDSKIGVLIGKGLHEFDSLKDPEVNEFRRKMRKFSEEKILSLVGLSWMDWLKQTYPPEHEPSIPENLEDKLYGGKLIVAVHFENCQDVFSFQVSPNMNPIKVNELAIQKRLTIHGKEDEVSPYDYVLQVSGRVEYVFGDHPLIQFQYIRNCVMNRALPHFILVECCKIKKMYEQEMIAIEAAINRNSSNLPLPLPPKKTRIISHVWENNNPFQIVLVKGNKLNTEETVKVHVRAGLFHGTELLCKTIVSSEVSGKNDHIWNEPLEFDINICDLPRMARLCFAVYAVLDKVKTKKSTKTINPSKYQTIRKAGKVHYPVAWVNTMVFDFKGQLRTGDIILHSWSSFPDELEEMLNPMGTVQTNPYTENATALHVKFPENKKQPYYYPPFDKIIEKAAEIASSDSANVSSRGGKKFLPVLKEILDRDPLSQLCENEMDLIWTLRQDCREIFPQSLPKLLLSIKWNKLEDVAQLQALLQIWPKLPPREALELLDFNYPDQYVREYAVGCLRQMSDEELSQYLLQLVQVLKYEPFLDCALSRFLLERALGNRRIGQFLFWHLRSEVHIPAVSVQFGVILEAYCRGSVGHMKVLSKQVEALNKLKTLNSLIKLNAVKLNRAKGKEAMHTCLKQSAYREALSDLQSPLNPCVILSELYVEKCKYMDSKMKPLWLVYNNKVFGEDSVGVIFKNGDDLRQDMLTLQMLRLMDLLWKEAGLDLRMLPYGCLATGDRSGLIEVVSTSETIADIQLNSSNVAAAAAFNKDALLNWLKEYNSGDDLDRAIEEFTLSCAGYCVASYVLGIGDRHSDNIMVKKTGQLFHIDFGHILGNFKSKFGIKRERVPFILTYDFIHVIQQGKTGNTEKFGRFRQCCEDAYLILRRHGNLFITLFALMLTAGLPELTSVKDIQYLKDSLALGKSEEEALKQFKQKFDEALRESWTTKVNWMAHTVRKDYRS

Turning to `Cc1cc(C(C)Nc2ccccc2C(=O)NCCCCCCCC(=O)N[C@H](C(=O)N2C[C@H](O)C[C@H]2C(=O)NCc2ccc(-c3scnc3C)cc2)C(C)(C)C)c2nc(N3CCOCC3)cc(=O)n2c1` (some centres not stated), the outcome in assay [1], in assay [2], in [3] and in [4] was Active.

As to `N#CSc1cc(SC#N)c(N)nc1N`, the outcome with A549/CDDP [5] was Active.

For `CC(C)[C@H](NC(=O)OCc1ccccc1)C(=O)N[C@@H](C)C(=O)N[C@@H](CC(=O)O)C(=O)CF` (Cbz-Val-Ala-Asp-CH2F), the outcome with MCF7/ADM [6] and with A549/CDDP [7] was Active.

As for `Cc1cc(C(C)Nc2ccccc2C(=O)NCCCC(=O)N[C@H](C(=O)N2C[C@H](O)C[C@H]2C(=O)NCc2ccc(-c3scnc3C)cc2)C(C)(C)C)c2nc(N3CCOCC3)cc(=O)n2c1` (some centres not stated), the outcome in assay [1], in assay [2], in [3] and in [4] was Active.

Turning to `Cc1cc(C(C)Nc2ccccc2C(=O)NCCCCCC(=O)N[C@H](C(=O)N2C[C@H](O)C[C@H]2C(=O)NCc2ccc(-c3scnc3C)cc2)C(C)(C)C)c2nc(N3CCOCC3)cc(=O)n2c1` (some centres not stated), the outcome in assay [1], in assay [2], in [3] and in assay [4] was Active.

As to `Cc1cc(C(C)Nc2ccccc2C(=O)NCCC(=O)N[C@H](C(=O)N2C[C@H](O)C[C@H]2C(=O)NCc2ccc(-c3scnc3C)cc2)C(C)(C)C)c2nc(N3CCOCC3)cc(=O)n2c1` (some centres not stated), the result in assay [1], in assay [2], in assay [3] and in [4] was Active.

With `C[C@H](CCC(=O)NCCS(=O)(=O)O)[C@H]1CC[C@H]2[C@@H]3[C@@H](O)C[C@@H]4C[C@H](O)CC[C@]4(C)[C@H]3CC[C@]12C` [TAURURSODIOL], the outcome in the assay on MCF7/ADM [6] and in the assay on A549/CDDP [7] was Active. Besides, the Activity was determined as 18.57% in the assay with A549/CDDP [8] and 21.48% in assay [9].

Take `O=c1cc(N2CCOCC2)oc2c(-c3ccccc3)cccc12`: the outcome in the assay on A549/CDDP [5] was Active.

`Cc1cc(C(C)Nc2ccccc2)c2nc(N3CCOCC3)cc(=O)n2c1` (configuration not stated): the result (in [10]; in the assay with MCF7/ADM [14]) was Active. Further, the IC50 (in general, the concentration that inhibits the measured activity by half) with A549 is 88.3 µM; with MCF7, 75.1 µM; in assay [12] it was 50.8 µM; in the assay with A549/CDDP [13], 57.9 µM. Moreover, the result in assay [11], in [15] and in [16] was inactive.

Consider `Cc1cc(C(C)Nc2ccccc2C(=O)NCCCCCCCCCCC(=O)N[C@H](C(=O)N2C[C@H](O)C[C@H]2C(=O)NCc2ccc(-c3scnc3C)cc2)C(C)(C)C)c2nc(N3CCOCC3)cc(=O)n2c1` (some centres not stated), for which the outcome in assay [1], in assay [2], in [3] and in assay [4] was Active.
